{
  "source": "patent US20260102492A1",
  "about": "“Inhibition of Natural Killer Cell Cytoxocity” (University of Cincinnati, priority 2022, published 2026)",
  "key": {"[1]": {"test_system": "HNSCC patient-derived NK cells", "assay": "NK cell perforin ELISA after co-culture with Cal27 cells", "format": "cell-based, Human", "conditions": "for reversal of CXCL1 mediated inhibition of perforin: 50 ng CXCL1, Cal27 4 hours", "description": "For NK cell perforin assays, NK cells were treated with drug for 24 hrs, washed, and co-cultured with Cal27 cells for 4 hours. Supernatant was then collected, snap frozen in liquid nitrogen and stored at −80 until thawed for single use. For patient samples, undiluted plasma was added directly to ELISA. ELISA kit for perforin was obtained from ABCAM. ELISA was performed according to the manufacturer's protocol. Protocols included overnight coating of capture antibody diluted by lot number recommendation, 1 hr block with 400 uL 2% BSA in PBS, 2 hr sample incubation at room temperature of 100 uL sample (no dilution of sample was performed in these experiments), 2 hr […] diluted by lot number recommendation, 20 min Streptavidin incubation with 100 uL of 1:40 dilution of stock, and 15 min incubation with 100 uL included TMB ELISA reagent. 50 uL stop solution of in house 2N […] was added to stop reaction before reading at […] wavelength on plate reader. All plates included standard curve prepared per lot number recommendation with range of 35-2000 pg.\nHNSCC patient-derived NK cells were treated with exogenous CXCL1 and an inhibitor of the CXCL1 receptor, CXCR2, or metformin. Patient-derived NK cells were exposed to Cal27 cells for 4 hours and supernatant was collected for perforin analysis by ELISA. Specifically, HNSCC NK cells derived from PBMCs were treated with 50 ng CXCL1, 12 mM metformin, or 10 nM CXCR2i (navarixin) and subjected to perforin against Cal27 target cells. Cells were analyzed by flow and analyzed by one way ANOVA. n=8.\nSpecifically, HNSCC NK cells were treated with vehicle, metformin, or 10 uM AMPK inhibitor (Dosomorphin) for 24 hrs, washed, and co-cultured with Cal27 cells for 4 hrs. Supernatant was collected for ELISA and analyzed by one way ANOVA. n=5.\nHNSCC patient-derived NK cells were treated with vehicle, metformin, 10 uM mTOR inhibitor (Everolimus), or 10 uM mTOR activator (MHY1485) for 24 hrs, washed, and co-cultured with Cal27 cells for 4 hrs. Supernatant was collected for ELISA and analyzed by one way ANOVA. n=5.\nAs pSTAT1 can modulate perforin production, HNSCC patient-derived NK cells were treated with vehicle, […], or 10 uM of pSTAT1i inhibitor Fludarabine for 24 hrs, washed, and co-cultured with Cal27 cells for 4 hrs.\nHNSCC NK cells were treated with vehicle, 12 mM metformin, 50 ng CXCL1, or 10 uM pSTAT3 inhibitor BP-1012 and co-cultured with Cal27 cells for 4 hrs. Supernatant was collected for ELISA and analyzed by one way ANOVA. n=5."}, "[2]": {"test_system": "HNSCC patient-derived NK cells", "assay": "CXCL1 ELISA of NK cell culture supernatant", "format": "cell-based, Human", "description": "Healthy donor and HNSCC NK cells were isolated from PBMCs and were treated for 24 hrs with vehicle or metformin. Supernatant was collected and analyzed by ELISA (analyzed by one way ANOVA. n=10).\nHNSCC NK cells were isolated from PBMCs and treated with vehicle, 12 mM metformin, 50 ng CXCL1, 10 uM everolimus, or 10 uM BP-1-102 for 24 hr. The cells were washed and plated in fresh media. After 24 hrs, supernatant was collected for ELISA."}, "[3]": {"test_system": "pSTAT1", "assay": "Western blot of HNSCC NK cell lysates, pSTAT1", "format": "cell-based, Human", "conditions": "metformin or 50 ng CXCL1, 24 hrs, FIG. 3A/3B", "description": "NK92, Cal27, UMSCC47 and HN5 cells were cultured with drug as described. Cells were collected in RIPA (0.05% sodium deoxycholate, […], 0.1% SDS, 1% NP-40) and protein content was analyzed by Pierce BCA kit (Thermo 23225). 50 ug of protein was diluted in 1×loading buffer (SDS, bromophenol blue, 47% glycerol, Tris 0.5M pH 6.8, 0.2 mM DTT-G) and heated to 90° C. for 3 minutes. Prepared lysate was loaded into gradient gels (Biorad 4561093) and run at 85V for 1.5 hour in Biorad casing with a Biorad powerpack in 1×running buffer (Tris, Glycine, SDS). Gels were transferred on nitrocellulose and run at 100V on bench for 1 hour in 1×transfer buffer (Tris, Glycine). […] Images were analyzed in Image Studio Lite V 5.2.\nTo determine what those pathways could be, pathways known to be affected by both metformin and CXCL1 were investigated. pSTAT3 and mTOR are known to be increased by activation of the CXCR2 receptor, and mTOR activation can inhibit pSTAT1 expression. […] Therefore, HNSCC patient-derived NK cells treated with metformin, CXCL1, or CXCR2i (navaxarin) were collected and analyzed by western blot analysis. Head and neck squamous cell carcinoma (HNSCC) natural killer (NK) cells were treated with metformin, 50 ng CXCL1, or 10 uM CXCR2i (navarixin) for 24 hrs and collected for lysates analyzed by western blot analysis (FIG. 3A)."}, "[4]": {"test_system": "pSTAT3", "assay": "Western blot of HNSCC NK cell lysates, pSTAT3", "format": "cell-based, Human", "description": "NK92, Cal27, UMSCC47 and HN5 cells were cultured with drug as described. Cells were collected in RIPA (0.05% sodium deoxycholate, […], 0.1% SDS, 1% NP-40) and protein content was analyzed by Pierce BCA kit (Thermo 23225). 50 ug of protein was diluted in 1×loading buffer (SDS, bromophenol blue, 47% glycerol, Tris 0.5M pH 6.8, 0.2 mM DTT-G) and heated to 90° C. for 3 minutes. Prepared lysate was loaded into gradient gels (Biorad 4561093) and run at 85V for 1.5 hour in Biorad casing with a Biorad powerpack in 1×running buffer (Tris, Glycine, SDS). Gels were transferred on nitrocellulose and run at 100V on bench for 1 hour in 1×transfer buffer (Tris, Glycine). Membranes were blocked in 5% BSA in TBS for 1 hr, washed, and incubated in primary diluted in 2% BSA in TBS overnight. Membranes were washed and incubated in Licor secondary (Licor 926-32211 and 925-68070) in 5% BSA in TBS for 1 hr. Membranes were washed and imaged on a Licor Odyssey Clx. Images were analyzed in Image Studio Lite V 5.2.\nTo determine what those pathways could be, pathways known to be affected by both metformin and CXCL1 were investigated. pSTAT3 and mTOR are known to be increased by activation of the CXCR2 receptor, and mTOR activation can inhibit pSTAT1 expression. Metformin is also hypothesized to inhibit pSTAT3 and mTOR in NK cells. Therefore, HNSCC patient-derived NK cells treated with metformin, CXCL1, or CXCR2i (navaxarin) were collected and analyzed by western blot analysis. Head and neck squamous cell carcinoma (HNSCC) natural killer (NK) cells were treated with metformin, 50 ng CXCL1, or 10 uM CXCR2i (navarixin) for 24 hrs and collected for lysates analyzed by western blot analysis (FIG. 3A)."}, "[5]": {"test_system": "HNC cells", "assay": "Natural killer cytotoxicity assay (NKCA), NK cells against CFSE labeled HNC cells (7AAD)", "format": "cell-based", "conditions": "exogenous CXCL1 added to metformin treated NK cells", "description": "FIG. 12B is a graph showing NK cells that were treated with either pembrolizumab (PD-1 inhibitor), exogenous CXCL1, Navaxarin (CXCR2 inhibitor) or combination and combined with CFSE labeled HNC cells. Cytotoxicity was measured by 7AAD 4 hours after incubation. N=5, PBMCS or NK cells isolated from the same PBMCs from patient samples.\nNK cells were isolated from PBMCs using the EasySep Human NK Cell Isolation Kit (Stem Cell Technologies). Cells were washed in Robobuffer and treated with drug indicated in legend for 24 hrs in culture medium. One day before co-culture, cells were collected, washed, and stained with 5(6)-Carboxyfluorescein diacetate N-succinimidyl ester (CFDA-SE) (StemCell Technologies). Untreated UMSCC47, Cal-27, or matched primary HNC tumor cell lines cells were plated at 20,000 cell/ml and assumed to double overnight. NK cells were resuspended in RPMI 1640 (Corning) with 5% human serum at a density of 200,000 cells/ml. Cells were co-cultured for a Target:Effector ratio of 1:5 for 4 hrs, collected, and washed in flow buffer. Cells were then stained with 7AAD Viability Staining Solution (Biolegend). Cells were immediately run on a 4-laser BD Instrument (University of Cincinnati Cancer Cell Biology Department, Cincinnati, Ohio). […] NK killed cells were calculated by the following equation: (% CSFE+7AAD+experimental co-culture)−(% CSFE+7AAD+control no co-culture)."}, "[6]": {"test_system": "CXCL1", "assay": "Patient plasma CXCL1 ELISA, trial NCT02641093 (pre and post pembrolizumab)", "format": "in vivo, Human"}, "[7]": {"test_system": "CXCL1", "assay": "Plasma CXCL1 of pembrolizumab treated head and neck cancer patients (FIG. 11)", "format": "in vivo, Human", "conditions": "pembrolizumab treated patients vs baseline; preliminary data", "description": "CXCL1 was knocked out by CRISP-Cas9 in NK cells as a novel approach in order to enhance their tumor cytotoxicity. These NK cells can be used as an “off the shelf” anti-cancer therapeutic. […] In addition, CXCL1 functions were inhibited with a CXCR2 inhibitor as an alternative treatment strategy with and without addition of a PD-1 inhibitor. […] In addition, the combination of pembrolizumab and CXCR2 inhibitor (Navaxarin) increases both PBMC and NK cell cytotoxicity (FIGS. 12A, 12B and 13)."}, "[8]": {"conditions": "combination of 10 uM everolimus and 10 uM BP-1-102, also with 50 ng CXCL1, n=5"}, "[9]": {"conditions": "single agent (12 mM metformin, 10 uM everolimus or 10 uM BP-1-102) 24 hr, fresh media 24 hrs, n=5, FIG. 8"}, "[10]": {"conditions": "10 uM single agent 24 hrs, Cal27 co-culture 4 hrs, n=5, FIG. 5"}},
  "data": [
    {"molecule": "CC[C@@H](Nc1c(Nc2cccc(C(=O)N(C)C)c2O)c(=O)c1=O)c1ccc(C)o1", "note": "[CXCR2 inhibitor, Navarixin]", "values": [
      {"measurement": "reversal of CXCL1 mediated inhibition of perforin", "setting": "[1]; 10 nM CXCR2i (navarixin) alone, n=8", "result": "reversed CXCL1 mediated inhibition"},
      {"measurement": "reversal of CXCL1 mediated inhibition of perforin", "setting": "[1]; 10 nM CXCR2i (navarixin) in combination with 12 mM metformin, n=8", "result": "reversed CXCL1 mediated inhibition"}
    ]},
    {"molecule": "CO[C@H]1C[C@@H]2CC[C@@H](C)[C@@](O)(O2)C(=O)C(=O)N2CCCC[C@H]2C(=O)O[C@H]([C@H](C)C[C@@H]2CC[C@@H](OCCO)[C@H](OC)C2)CC(=O)[C@H](C)/C=C(\\C)[C@@H](O)[C@@H](OC)C(=O)[C@H](C)C[C@H](C)/C=C/C=C/C=C/1C", "note": "[Everolimus]", "values": [
      {"measurement": "CXCL1 secretion", "setting": "[2]; [8]", "result": "decreased levels down to those similar of metformin even in the presence of CXCL1"},
      {"measurement": "CXCL1 secretion", "setting": "[2]; [9]", "result": "did not reduce CXCL1"},
      {"measurement": "perforin production", "setting": "[1]; 10 uM Everolimus in combination with metformin 24 hrs, Cal27 co-culture 4 hrs, n=5", "result": "did not increase perforin over either agent alone"},
      {"measurement": "perforin production", "setting": "[1]; [10]", "result": "enhanced perforin production similar to metformin"}
    ]},
    {"molecule": "C-X-C motif chemokine ligand 1 [CXCL1]", "values": [
      {"measurement": "perforin production", "setting": "[1]; 12 mM metformin or 50 ng CXCL1, Cal27 target cells 4 hours, n=8, FIG. 2", "result": "reduced NK cell perforin production"},
      {"measurement": "metformin mediated NK degranulation", "setting": "[1]; exogenous CXCL1 added to metformin, FIG. 2", "result": "reverses metformin mediated NK degranulation"},
      {"measurement": "pSTAT1", "setting": "[3]", "result": "did not reverse pSTAT1 expression with metformin or change it from baseline"},
      {"measurement": "metformin reduction of pSTAT3", "setting": "[4]; exogenous CXCL1 (50 ng) together with metformin, 24 hrs", "result": "reversed"},
      {"measurement": "pSTAT3", "setting": "[4]; metformin or 50 ng CXCL1, 24 hrs, western blot, FIG. 3A/3B", "result": "increases pSTAT3"},
      {"measurement": "metformin induced cytotoxicity", "setting": "[5]", "result": "ablated metformin induced cytotoxicity"}
    ]},
    {"molecule": "O=[N+]([O-])c1ccc(Nc2nc(N3CCOCC3)nc(N3CCOCC3)n2)cc1", "note": "[MHY1485]", "values": [
      {"measurement": "perforin production", "setting": "[1]; [10]", "result": "did not result in suppression of perforin"}
    ]},
    {"molecule": "pembrolizumab", "values": [
      {"measurement": "plasma CXCL1", "setting": "[6]; all patients, post vs pre pembrolizumab, FIG. 10A", "result": "significant increase in CXCL1"},
      {"measurement": "plasma CXCL1", "setting": "[6]; divided into responders and non-responders, n=10 each, FIG. 10B", "result": "non-responders accounted for the increase"},
      {"measurement": "plasma CXCL1", "setting": "[6]; divided into responders and non-responders, n=10 each, FIG. 10B, listed as Pembrolizumab", "result": "increased with non-responders"},
      {"measurement": "CXCL1 in plasma", "setting": "[7]", "result": "trend to higher levels of CXCL1"}
    ]},
    {"molecule": "CN(CC(=O)N(Cc1ccc(C2CCCCC2)cc1)c1ccc(C(=O)O)c(O)c1)S(=O)(=O)c1c(F)c(F)c(F)c(F)c1F", "note": "[BP-1-102]", "values": [
      {"measurement": "CXCL1 secretion", "setting": "[2]; [8]", "result": "decreased levels down to those similar of metformin even in the presence of CXCL1"},
      {"measurement": "CXCL1 secretion", "setting": "[2]; [9]", "result": "did not reduce CXCL1"},
      {"measurement": "rescue of CXCL1 mediated suppression of perforin", "setting": "[1]; 10 uM pSTAT3 inhibitor with 50 ng CXCL1, alone or with 12 mM metformin, Cal27 4 hrs, n=5", "result": "able to rescue CXCL1 mediated suppression of perforin both alone or in presence of metformin"},
      {"measurement": "perforin", "setting": "[1]; 10 uM pSTAT3 inhibitor, baseline, Cal27 co-culture 4 hrs, n=5, FIG. 7", "result": "no effect on perforin at baseline"}
    ]}
  ]
}
